ChEMBL document CHEMBL6103569, “Discovery of novel fluorine-containing parthenolide analogues as potential antitumor agents” (Eur J Med Chem, 2025)
Blank lines part the entries; values can stand above or below the compound they belong to. Active and inactive are the calls of the source. The rule behind the calls is not given here.

Assays:
[1] = Antiproliferative activity against human NCI-H820 cells assessed as inhibition of cell growth incubated for 72 hrs by MTT assay; assay type: functional, cell-based
Huh-7 [2] = assay: Antiproliferative activity against human Huh-7 cells assessed as inhibition of cell growth incubated for 72 hrs by MTT assay; assay type: functional, cell-based
PANC-1 [3] = assay: Antiproliferative activity against human PANC-1 cells assessed as inhibition of cell growth incubated for 72 hrs by MTT assay; assay type: functional, cell-based
NCI-H820 [4] = assay: Antitumor activity against human NCI-H820 cells xenografted in BALB/c nude mouse model assessed as reduction in tumor volume at 30 mg/kg, po administered every 2 days; assay type: functional, organism-based; conditions: time 2.0 day
NCI-H820 [5] = assay: Antitumor activity against human NCI-H820 cells xenografted in BALB/c nude mouse model assessed as reduction in tumor weight at 30 mg/kg, po administered every 2 days; assay type: functional, organism-based; conditions: time 2.0 day
NCI-H820 [6] = assay: Inhibition of colony formation in human NCI-H820 cells incubated for 7 to 10 days by crystal violet staining based analysis; assay type: functional, cell-based; conditions: dose 0.2-5 µM, time 7-10 day
Huh-7 [7] = assay: Inhibition of colony formation in human Huh-7 cells incubated for 7 to 10 days by crystal violet staining based analysis; assay type: functional, cell-based; conditions: dose 0.2-5 µM, time 7-10 day
PANC-1 [8] = assay: Inhibition of colony formation in human PANC-1 cells incubated for 7 to 10 days by crystal violet staining based analysis; assay type: functional, cell-based; conditions: dose 0.2-5 µM, time 7-10 day
[9] = Induction of apoptosis in human NCI-H820 cells assessed as viable cells at 2 uM incubated for 48 hrs by Annexin V/FITC staining based flow cytometry analysis (reference value: 98%); assay type: functional; conditions: read-out: Activity
[10] = Induction of apoptosis in human NCI-H820 cells assessed as early apoptotic cells at 2 uM incubated for 48 hrs by Annexin V/FITC staining based flow cytometry analysis (reference value: 0.012%); assay type: functional
[11] = Induction of apoptosis in human NCI-H820 cells assessed as late apoptotic cells at 2 uM incubated for 48 hrs by Annexin V/FITC staining based flow cytometry analysis (reference value: 0.025%); assay type: functional
[12] = Induction of apoptosis in human NCI-H820 cells assessed as necrotic cells at 2 uM incubated for 48 hrs by Annexin V/FITC staining based flow cytometry analysis (reference value: 0.060%); assay type: functional
[13] = Induction of apoptosis in human NCI-H820 cells assessed as viable cells at 5 uM incubated for 48 hrs by Annexin V/FITC staining based flow cytometry analysis (reference value: 98%); assay type: functional; conditions: read-out: Activity
[14] = Induction of apoptosis in human NCI-H820 cells assessed as early apoptotic cells at 5 uM incubated for 48 hrs by Annexin V/FITC staining based flow cytometry analysis (reference value: 0.012%); assay type: functional
[15] = Induction of apoptosis in human NCI-H820 cells assessed as late apoptotic cells at 5 uM incubated for 48 hrs by Annexin V/FITC staining based flow cytometry analysis (reference value: 0.025%); assay type: functional
[16] = Induction of apoptosis in human NCI-H820 cells assessed as necrotic cells at 5 uM incubated for 48 hrs by Annexin V/FITC staining based flow cytometry analysis (reference value: 0.060%); assay type: functional
[17] = Induction of apoptosis in human NCI-H820 cells assessed as early apoptotic cells at 10 uM incubated for 48 hrs by Annexin V/FITC staining based flow cytometry analysis (reference value: 0.012%); assay type: functional
[18] = Induction of apoptosis in human NCI-H820 cells assessed as late apoptotic cells at 10 uM incubated for 48 hrs by Annexin V/FITC staining based flow cytometry analysis (reference value: 0.025%); assay type: functional
[19] = Induction of apoptosis in human NCI-H820 cells assessed as necrotic cells at 10 uM incubated for 48 hrs by Annexin V/FITC staining based flow cytometry analysis (reference value: 0.060%); assay type: functional
NCI-H820 [20] = assay: Inhibition of Ki67 expression in human NCI-H820 cells incubated for 48 hrs by Western blot analysis; assay type: functional, cell-based; conditions: dose <= 5.0 µM
NCI-H820 [21] = assay: Inhibition of Bcl-2 expression in human NCI-H820 cells incubated for 48 hrs by Western blot analysis; assay type: functional, cell-based; conditions: dose <= 5.0 µM
NCI-H820 [22] = assay: Inhibition of cell migration in human NCI-H820 cells assessed as decrease in migration rate incubated for 48 hrs by wound healing assay; assay type: functional, cell-based; conditions: dose <= 5.0 µM
NCI-H820 [23] = assay: Inhibition of cell migration in human NCI-H820 cells assessed as decrease in migration rate incubated for 48 hrs by transwell assay; assay type: functional, cell-based; conditions: dose <= 5.0 µM
NCI-H820 [24] = assay: Upregulation of E-cadherin level in human NCI-H820 cells upto 5 uM incubated for 48 hrs by Western blot analysis; assay type: functional, cell-based
NCI-H820 [25] = assay: Downregulation of Vimentin level in human NCI-H820 cells upto 5 uM incubated for 48 hrs by Western blot analysis; assay type: functional, cell-based
NCI-H820 [26] = assay: Downregulation of STAT3 level in human NCI-H820 cells incubated for 48 hrs by Western blot analysis; assay type: functional, cell-based; conditions: dose <= 5.0 µM
[27] = target: Signal transducer and activator of transcription 3 (Homo sapiens) (UniProt P40763); assay: Inhibition of STAT3 phosphorylation in human NCI-H820 cells incubated for 48 hrs by Western blot analysis; assay type: cell-based; conditions: dose <= 5.0 µM
Signal transducer and activator of transcription 3 (Homo sapiens), sequence (P40763 whole entry): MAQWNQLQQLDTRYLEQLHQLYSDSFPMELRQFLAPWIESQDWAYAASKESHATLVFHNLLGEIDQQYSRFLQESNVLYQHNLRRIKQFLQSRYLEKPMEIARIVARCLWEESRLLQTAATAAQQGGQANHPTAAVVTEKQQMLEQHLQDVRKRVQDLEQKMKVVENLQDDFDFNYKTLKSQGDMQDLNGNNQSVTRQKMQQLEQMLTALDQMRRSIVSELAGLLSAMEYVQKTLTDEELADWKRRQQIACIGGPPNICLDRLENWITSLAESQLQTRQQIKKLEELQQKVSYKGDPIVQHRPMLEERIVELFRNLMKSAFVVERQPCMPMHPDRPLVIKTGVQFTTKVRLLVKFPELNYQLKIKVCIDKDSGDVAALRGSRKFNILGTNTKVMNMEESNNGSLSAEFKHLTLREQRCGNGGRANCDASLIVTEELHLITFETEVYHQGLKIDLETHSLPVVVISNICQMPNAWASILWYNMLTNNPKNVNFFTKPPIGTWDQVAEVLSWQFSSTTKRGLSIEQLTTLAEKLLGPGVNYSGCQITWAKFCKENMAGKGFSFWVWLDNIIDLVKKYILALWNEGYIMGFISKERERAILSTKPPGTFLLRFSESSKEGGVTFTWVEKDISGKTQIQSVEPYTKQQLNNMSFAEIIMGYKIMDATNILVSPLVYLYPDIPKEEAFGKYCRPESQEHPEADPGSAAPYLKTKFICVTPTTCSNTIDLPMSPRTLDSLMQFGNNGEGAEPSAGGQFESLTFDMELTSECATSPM

IC50 (Huh-7 [2]; Homo sapiens, Huh-7, 72 h): 3.34 µM
IC50 (PANC-1 [3]; Homo sapiens, PANC-1, 72 h): 4.88 µM
Structure (SMILES): C[C@@]12CC/C=C(/CC(F)(F)F)CC[C@H]3C(CN4CC[C@@H](O)C4)C(=O)O[C@@H]3[C@@H]1O2 (some centres undefined)
IC50 ([1]; Homo sapiens, NCI-H820, 72 h): 4.62 µM

Structure (SMILES): CN(C)CC1C(=O)O[C@H]2[C@H]1CC/C(CC(F)(F)F)=C\CC[C@@]1(C)O[C@@H]21 (some centres undefined) [listing 1 of 2 here]
IC50 ([1]; Homo sapiens, NCI-H820, 72 h): 3.86 µM
IC50 (Huh-7 [2]; Homo sapiens, Huh-7, 72 h): 2.64 µM
IC50 (PANC-1 [3]; Homo sapiens, PANC-1, 72 h): 3.8 µM

Structure (SMILES): CN(C)CC1C(=O)O[C@H]2[C@H]1CC/C(CC(F)(F)F)=C\CC[C@@]1(C)O[C@@H]21 (some centres undefined) [listing 2 of 2 here]
Activity (NCI-H820 [4]): Active
Activity (NCI-H820 [5]): Active

IC50 (Huh-7 [2]; Homo sapiens, Huh-7, 72 h): 3.13 µM
IC50 (PANC-1 [3]; Homo sapiens, PANC-1, 72 h): 3.62 µM
Structure (SMILES): CCCN(C)CC1C(=O)O[C@H]2[C@H]1CC/C(CC(F)(F)F)=C\CC[C@@]1(C)O[C@@H]21 (some centres undefined)
IC50 ([1]; Homo sapiens, NCI-H820, 72 h): 5.52 µM

IC50 (Huh-7 [2]; Homo sapiens, Huh-7, 72 h): 4.32 µM
IC50 (PANC-1 [3]; Homo sapiens, PANC-1, 72 h): 4.59 µM
Structure (SMILES): CCCNCC1C(=O)O[C@H]2[C@H]1CC/C(CC(F)(F)F)=C\CC[C@@]1(C)O[C@@H]21 (some centres undefined)
IC50 ([1]; Homo sapiens, NCI-H820, 72 h): 4.39 µM

IC50 (Huh-7 [2]; Homo sapiens, Huh-7, 72 h): 0.99 µM
IC50 (PANC-1 [3]; Homo sapiens, PANC-1, 72 h): 1.09 µM
Structure (SMILES): C=C1C(=O)O[C@H]2[C@H]1CC/C(CSC(F)(F)F)=C\CC[C@@]1(C)O[C@@H]21
IC50 ([1]; Homo sapiens, NCI-H820, 72 h): 1.37 µM

IC50 (Huh-7 [2]; Homo sapiens, Huh-7, 72 h): 3.57 µM
IC50 (PANC-1 [3]; Homo sapiens, PANC-1, 72 h): 5.68 µM
Structure (SMILES): C[C@@]12CC/C=C(/CC(F)(F)F)CC[C@H]3C(CN4CCCC4)C(=O)O[C@@H]3[C@@H]1O2 (some centres undefined)
IC50 ([1]; Homo sapiens, NCI-H820, 72 h): 6.65 µM

IC50 (Huh-7 [2]; huh-7): 2.38 µM
IC50 (PANC-1 [3]; panc-1): 5.43 µM
Structure (SMILES): C[C@@]12CC/C=C(/CC(F)(F)F)CC[C@H]3C(CN4CCC(O)CC4)C(=O)O[C@@H]3[C@@H]1O2 (some centres undefined)
IC50 ([1]; nci-h820): 4.88 µM

IC50 (Huh-7 [2]; Homo sapiens, Huh-7, 72 h): 2.36 µM
IC50 (PANC-1 [3]; Homo sapiens, PANC-1, 72 h): 2.16 µM
inhibition [27]: Dose-dependent-effect
Structure (SMILES): C=C1C(=O)O[C@H]2[C@H]1CC/C(CC(F)(F)F)=C\CC[C@@]1(C)O[C@@H]21
IC50 ([1]; Homo sapiens, NCI-H820, 72 h): 2.66 µM
inhibition (NCI-H820 [6]): Active
inhibition (Huh-7 [7]): Active
inhibition (PANC-1 [8]): Active
viability at 2 µM [9]: 64%
Activity [10]: 0.14%
Activity [11]: 0.51%
Activity [12]: 1.4%
viability at 5 µM [13]: 86.8%
Activity [14]: 2.77%
Activity [15]: 6.54%
Activity [16]: 2.07%
Activity [17]: 0.06%
Activity [18]: 5.24%
Activity [19]: 0.55%
inhibition (NCI-H820 [20]): Dose-dependent-effect
inhibition (NCI-H820 [21]): Dose-dependent-effect
inhibition (NCI-H820 [22]): Dose-dependent-effect
inhibition (NCI-H820 [23]): Dose-dependent-effect
Activity (NCI-H820 [24]): Active
Activity (NCI-H820 [25]): Active
Activity (NCI-H820 [26]): Dose-dependent-effect

IC50 (Huh-7 [2]; Homo sapiens, Huh-7, 72 h): 3.18 µM
IC50 (PANC-1 [3]; Homo sapiens, PANC-1, 72 h): 3.31 µM
Structure (SMILES): C=C1C(=O)O[C@H]2[C@H]1CC/C(COC(F)F)=C\CC[C@@]1(C)O[C@@H]21
IC50 ([1]; Homo sapiens, NCI-H820, 72 h): 4.32 µM

IC50 (Huh-7 [2]; Homo sapiens, Huh-7, 72 h): 3.29 µM
IC50 (PANC-1 [3]; Homo sapiens, PANC-1, 72 h): 3.66 µM
Structure (SMILES): C[C@@]12CC/C=C(/CC(F)(F)F)CC[C@H]3C(CN4CCC[C@@H]4CO)C(=O)O[C@@H]3[C@@H]1O2 (some centres undefined)
IC50 ([1]; Homo sapiens, NCI-H820, 72 h): 3.11 µM
